For experiment [1], the system named is STMN2 (TDP-mut (N352S) STMN2-NLuc SH-SY5Y cells). The experiment can be described thus: STMN2 nanoluciferase assay in TDP-43 mutant SH-SY5Y cells (Table A: mut TDP-43; Table B: mut HD Luciferase). It is filed as cell-based, human. The conditions noted are these: mutant TDP-43 cell line; for EC50: Homo sapiens, SH-SY5Y. On the procedure: (§1) Neuroblastoma cells (ATCC) were cultured in DMEM/F12 (Gibco) supplemented with 10% fetal-bovine serum (Omega) and 1% penicillin-streptomycin (Gibco) at 37 °C with 5% CO2. For knockdown experiments, cells were transfected with SMARTpool ON-TARGETplus siRNA or control siRNA pool (D001810-10) (GE Dharmacon) at a final concentration of 50 nM, for 96 h in two doses (0, 24 h), after complexing with Lipofectamin RNAiMAX (Invitrogen) in Opti-MEM (Gibco) for 10 min.
(§2) WT and TDP-mut (N352S) SH-SY5Y cells were edited using CRISPR-Cas9 to express Nanoluciferase at the C-terminus of both endogenous STMN2 alleles. A single guided RNA targeting STMN2 C-terminus was designed (Benchling webtool) and cloned into pSpCas9-2A-green fluorescent protein (GFP) plasmid (px458-Addgene) using the BbsI restriction site. The sequence for guided RNA targeting STMN2 was: […]. For the repair template, overlapping fragments of 800 bp STMN2 homology arms flanking Nanoluciferase (NLuc, Promega) were generated and ligated into pUC57 backbone. A 42 bp GS-linker was also included 5′ to NLuc to prevent steric hindrance of the reporter to the final STMN2 exon. Fragments were ligated using Gibson Assembly and nucleofected simultaneously with pSpCas9-2A-GFP-gRNA plasmid using the Amaxa Nucleofector (assay A-023). Forty-eight hours following electroporation, cells were collected, and GFP-positive cells sorted and single-cell seeded into 96-well plates using the SH800S Sony cell sorter. Individual clones were expanded and DNA was extracted for PCR amplification of the STMN2 Ex5 genomic locus using primers within NLuc and outside the STMN2 5′ homology arm to confirm presence of the insert. The entire STMN2 coding region and all exon-intron junctions (>500-bp length of each intronic region) were then sequenced to verify the absence of any additional DNA alteration. qPCR analysis was performed with a wild-type isogenic SH-SY5Y cell line that had undergone the mutagenesis attempt but not acquired the insertion mutation during the original screening process.
(§3) TDP-mut STMN2-NLuc SH-SY5Y cells were used in small-molecule screening at ICCB-Longwood. 3000 cells/well were plated in white 384-well plates using a 50 ul sample volume. 24 hours after plating, compounds were added using 100 nl pin transfer. 24 hours later, 25 ul NLuc assay was added to each well according to manufacturer instructions (Promega, Cat #). Plates were shaken for 1 min prior to luminescence readings using EnVision2 machine. DMSO-only and WT STMN2-NLuc cells were included as negative and positive controls respectively on each plate, producing an average Z′score of ~0.7 across the screen. Each library plate was conducted in duplicate, and Z-scores calculated for each compound. For subsequent validation experiments, cell numbers in each well were quantified by hoescht staining at 1 μg/ml for 15 mins at 37C in black, clear bottom plates, prior to imaging at 4× using automated microscopy (ImageXpressMicro). Nuclei were then counted using a custom algorithm, and luciferase assay run as above. Luminescence results were then normalised against cell counts as RLU/cell.
(§4) Each compound was tested in triplicate in log doses ranging 0.01 μM−10 μM. The values are represented in luminescence normalized to the number of cells in the well, wherein darker grey correlates to higher RLU per cell and higher STMN2 protein expression.

In experiment [2] the test system is STMN2 (WT STMN2-NLuc SH-SY5Y cells). Nature of the experiment: STMN2 nanoluciferase assay in WT SH-SY5Y cells (Table A: WT TDP-32; Table B: WT HD Luciferase). It is filed as cell-based, human. The conditions noted are these: Homo sapiens, SH-SY5Y, WT cell line; for maximal fold induction: Emax. On the procedure:
as §1, §2, §3, §4

[3] abbreviates: Table B, read-out: EC50, mut HD Luciferase.
Setting [4] is: Table B, read-out: EC50, WT HD Luciferase.
Where [5] appears, read: Table A, read-out: EC50, mut TDP-43.
Where [6] appears, read: Table A, read-out: EC50, WT TDP-32.

Where two headings read alike, the source gives them in different places. Some results are limits rather than exact numbers.

In general, EC50 refers to the concentration needed to bring the measured effect to its halfway point. One may read the maximal fold induction as the ratio of treated to control signal.

Regarding `O=C(O)C[C@H](O)C[C@H](O)/C=C/c1c(C2CC2)nc2c(C3CC3)csc2c1-c1ccc(F)cc1` [Example I-25, (3R,5S,E)-7-(3,5-dicyclopropyl-7-(4-fluorophenyl)thieno[3,2-b]pyridin-6-yl)-3,5-dihydroxyhept-6-enoic acid], the 50% effective concentration (EC50) in experiment [1] (setting [3]) and in experiment [2] (setting [4]) was 10 to 50 nM in each case. Moreover, in experiment [2] (Table B), the maximal fold induction lay in the range of 1.5 to 1.75.
In the case of `Cc1csc2c(-c3ccc(F)cc3)c(/C=C/[C@@H](O)C[C@@H](O)CC(=O)N(C)C)c(C3CC3)nc12` [Example I-26, (3R,5S,E)-7-(5-cyclopropyl-7-(4-fluorophenyl)-3-methylthieno[3,2-b]pyridin-6-yl)-3,5-dihydroxy-N,N-dimethylhept-6-enamide], the EC50 in experiment [1] (setting [3]) and in experiment [2] (setting [4]) was at least 500 nM throughout. The “HD Luciferase (mut, Emax)” value in experiment [1] (Table B) was “* (means≥1 and <1.25)”. This molecule gave a maximal fold induction in experiment [2] (Table B) of 1 to 1.25.
In the case of `Cc1csc2c(-c3ccc(F)cc3)c(CC[C@H](O)C[C@@H](O)CC(=O)O)c(C3CC3)nc12` [Example I-33, (3R,5S)-7-(5-cyclopropyl-7-(4-fluorophenyl)-3-methylthieno[3,2-b]pyridin-6-yl)-3,5-dihydroxyheptanoic acid], the EC50 in experiment [1] (setting [3]) and in experiment [2] (setting [4]) was 100 to 500 nM in each case. In addition, the “HD Luciferase (mut, Emax)” value in experiment [1] (Table B) is “** (means≥1.25 and <1.5)”.
Consider `Cc1csc2nc(C3CC3)c(/C=C/[C@@H](O)C[C@@H](O)CC(=O)O)c(-c3ccc(Cl)cc3)c12` [Example I-34, (3R,5S,E)-7-(4-(4-chlorophenyl)-6-cyclopropyl-3-methylthieno[2,3-b]pyridin-5-yl)-3,5-dihydroxyhept-6-enoic acid], for which the concentration for a half-maximal effect (EC50) in experiment [1] (setting [3]) is 50 to 100 nM; in experiment [2] (setting [4]), 100 to 500 nM. The molecule further yielded a maximal fold induction in experiment [2] (Table B) of 1.5 to 1.75.
Consider `COCc1c(C23CC(C2)C3)nc(C2CC2)c(/C=C/[C@@H](O)C[C@@H](O)CC(=O)O)c1-c1ccc(F)cc1Cl` [II-1, (3R,5S,E)-7-(6-(bicyclo[1.1.1]pentan-1-yl)-4-(2-chloro-4-fluorophenyl)-2-cyclopropyl-5-(methoxymethyl)pyridin-3-yl)-3,5-dihydroxyhept-6-enoic acid], for which the EC50 in experiment [1] (setting [5]) lay within 100 to 500 nM; in experiment [1] (setting [3]), 10 to 50 nM; in experiment [2] (setting [6]) it was 100 to 500 nM; in experiment [2] (setting [4]) it was 10 to 50 nM. Further, the “HD Luciferase (mut, Emax)” value in experiment [1] (Table B) is “**** (means≥1.5 and <1.75)”.
Take `COCc1c(C23CC(C2)C3)nc(C2CC2)c(/C=C/[C@@H](O)C[C@@H](O)CC(=O)O)c1-c1ccc(F)cc1` [II-2, (3R,5S,E)-7-(6-(bicyclo[1.1.1]pentan-1-yl)-2-cyclopropyl-4-(4-fluorophenyl)-5-(methoxymethyl)pyridin-3-yl)-3,5-dihydroxyhept-6-enoic acid]: the EC50 in experiment [1] (setting [5]) is at most 100 nM; in experiment [1] (setting [3]) it was at most 10 nM; in experiment [2] (setting [6]) it was 100 to 500 nM; in experiment [2] (setting [4]), at most 10 nM.
Take `COCc1c(C2CCC2)nc(C2CCC2)c(/C=C/[C@@H](O)C[C@@H](O)CC(=O)O)c1-c1ccc(F)cc1Cl` [II-3, (3R,5S,E)-7-(4-(2-chloro-4-fluorophenyl)-2,6-dicyclobutyl-5-(methoxymethyl)pyridin-3-yl)-3,5-dihydroxyhept-6-enoic acid]: the EC50 is 500 to 1000 nM in experiment [1] (setting [5]), 100 to 500 nM in experiment [1] (setting [3]), 500 to 1000 nM in experiment [2] (setting [6]) and 100 to 500 nM in experiment [2] (setting [4]). The “HD Luciferase (mut, Emax)” value in experiment [1] (Table B) was “** (means≥1.25 and <1.5)”. The maximal fold induction in experiment [2] (Table B) was in the range of 1.25 to 1.5.
With `COCc1c(C2CCC2)nc(C2CC2)c(/C=C/[C@@H](O)C[C@@H](O)CC(=O)O)c1-c1ccc(F)cc1Cl` [II-4, (3R,5S,E)-7-(4-(2-chloro-4-fluorophenyl)-6-cyclobutyl-2-cyclopropyl-5-(methoxymethyl)pyridin-3-yl)-3,5-dihydroxyhept-6-enoic acid], the half-maximal effective concentration (EC50) in experiment [1] (setting [5]) was at most 100 nM; in experiment [1] (setting [3]), at most 10 nM; in experiment [2] (setting [6]), at most 100 nM; in experiment [2] (setting [4]), at most 10 nM.

Source of the values: patent publication US20260356846A1, “STATIN DERIVATIVES AND METHODS OF USING THE SAME” (The General Hospital Corporation, priority 2023, published 2026).
